# From patent US20220249463A1, “METHODS OF ALTERING CARDIAC REMODELING USING COMPOUNDS THAT PROMOTE GLUCOSE OXIDATION” (IMBRIA PHARMACEUTICALS, INC., priority 2019, published 2022)
# Assay: Stability of CV-8972 in aqueous solution at different concentrations and pH
# Type: physicochemical
# Protocol: The stability of CV-8972 was analyzed. Aqueous samples containing CV-8972 at different concentrations and pH were incubated for various periods and analyzed.
# Form A of CV-8972 were analyzed for stability in aqueous solution. Aqueous samples containing CV-8972 at different concentrations and pH were incubated for various periods and analyzed.
# [1] = 276-MBA-172 2 mg/mL pH 6 (Form A), 0 hrs, pH 6.1
# [2] = 276-MBA-172 2 mg/mL pH 6 (Form A), 1 hrs, pH 6.1
# [3] = 276-MBA-172 2 mg/mL pH 6 (Form A), 4 hrs, pH 6.1
# [4] = 276-MBA-172 2 mg/mL pH 6 (Form A), 6 hrs, pH 6.1
# [5] = 276-MBA-172 2 mg/mL pH 7 (Form A), 0 hrs, pH 6.7
# [6] = 276-MBA-172 2 mg/mL pH 7 (Form A), 1 hrs, pH 6.8
# [7] = 276-MBA-172 2 mg/mL pH 7 (Form A), 4 hrs, pH 6.7
# [8] = 276-MBA-172 2 mg/mL pH 7 (Form A), 6 hrs, pH 6.7
# [9] = 276-MBA-172 2 mg/mL pH 7 (Form A), 22 hrs, pH 6.8
# [10] = 276-MBA-172 10 mg/mL pH 6 (Form A), 0 hrs, pH 6.6
# [11] = 276-MBA-172 10 mg/mL pH 6 (Form A), 1 hrs, pH 6.8
# [12] = 276-MBA-172 10 mg/mL pH 6 (Form A), 4 hrs, pH 6.8
# [13] = 276-MBA-172 10 mg/mL pH 6 (Form A), 6 hrs, pH 6.7
# [14] = 276-MBA-172 10 mg/mL pH 6 (Form A), 22 hrs, pH 6.7
# [15] = 276-MBA-172 10 mg/mL pH 7 (Form A), 0 hrs, pH 7.1
# [16] = 276-MBA-172 10 mg/mL pH 7 (Form A), 1 hrs, pH 7.2
# [17] = 276-MBA-172 10 mg/mL pH 7 (Form A), 4 hrs, pH 7.1
# [18] = 276-MBA-172 10 mg/mL pH 7 (Form A), 6 hrs, pH 7.1
# [19] = 289-MBA-15-A 2 mg/mL pH 6 (Form B), 0 hrs, pH 6.9
# [20] = 289-MBA-15-A 2 mg/mL pH 6 (Form B), 1 hrs, pH 6.9
# [21] = 289-MBA-15-A 2 mg/mL pH 6 (Form B), 4 hrs, pH 6.8
# [22] = 289-MBA-15-A 2 mg/mL pH 6 (Form B), 6 hrs, pH 6.8
compound,measurement,setting,value
"COc1ccc(CN2CCN(CCOC(=O)c3cccnc3)CC2)c(OC)c1OC [CV-8972, 2-(4-(2,3,4-trimethoxybenzyl)piperazin-1-yl)ethyl nicotinate]",Retention Time 4.2,[1],1.29
same,Retention Time 5.6,[1],98.01
same,Decrease in purity of CV-8972 between time points,[2],0.79
same,Retention Time 2.2,[2],1.5
same,Retention Time 4.2,[2],1.28
same,Retention Time 5.6,[2],97.22
same,Decrease in purity of CV-8972 between time points,[3],0.21
same,Retention Time 2.2,[3],2.03
same,Retention Time 4.2,[3],0.95
same,Retention Time 5.6,[3],97.01
same,Decrease in purity of CV-8972 between time points,[4],0.5
same,Retention Time 2.2,[4],2.47
same,Retention Time 4.2,[4],1.02
same,Retention Time 5.6,[4],96.51
same,Retention Time 2.2,[5],1.42
same,Retention Time 4.2,[5],1.05
same,Retention Time 5.6,[5],97.53
same,Decrease in purity of CV-8972 between time points,[6],2.47
same,Retention Time 2.2,[6],3.31
same,Retention Time 4.2,[6],1.06
same,Retention Time 4.7,[6],0.57
same,Retention Time 5.6,[6],95.06
same,Decrease in purity of CV-8972 between time points,[7],1.36
same,Retention Time 2.2,[7],4.21
same,Retention Time 2.6,[7],0.58
same,Retention Time 4.2,[7],0.82
same,Retention Time 4.7,[7],0.69
same,Retention Time 5.6,[7],93.7
same,Decrease in purity of CV-8972 between time points,[8],1.58
same,Retention Time 2.2,[8],5.63
same,Retention Time 2.6,[8],0.67
same,Retention Time 4.2,[8],0.74
same,Retention Time 4.7,[8],0.85
same,Retention Time 5.6,[8],92.12
same,Decrease in purity of CV-8972 between time points,[9],1.05
same,Retention Time 2.2,[9],6.26
same,Retention Time 2.6,[9],0.85
same,Retention Time 4.2,[9],0.85
same,Retention Time 4.7,[9],0.98
same,Retention Time 5.6,[9],91.07
same,Retention Time 2.2,[10],3.39
same,Retention Time 2.6,[10],0.6
same,Retention Time 4.2,[10],0.23
same,Retention Time 4.7,[10],0.54
same,Retention Time 5.6,[10],95.24
same,Decrease in purity of CV-8972 between time points,[11],1.81
same,Retention Time 2.2,[11],4.81
same,Retention Time 2.6,[11],0.81
same,Retention Time 4.2,[11],0.23
same,Retention Time 4.7,[11],0.73
same,Retention Time 5.6,[11],93.43
same,Decrease in purity of CV-8972 between time points,[12],1.61
same,Retention Time 2.2,[12],5.72
same,Retention Time 2.6,[12],0.9
same,Retention Time 4.2,[12],0.21
same,Retention Time 4.7,[12],0.83
same,Retention Time 5.6,[12],91.82
same,Decrease in purity of CV-8972 between time points,[13],0.02
same,Retention Time 2.2,[13],6.45
same,Retention Time 2.6,[13],0.81
same,Retention Time 4.7,[13],0.93
same,Retention Time 5.6,[13],91.8
same,Decrease in purity of CV-8972 between time points,[14],2.14
same,Retention Time 2.2,[14],7.38
same,Retention Time 2.6,[14],1.54
same,Retention Time 4.2,[14],0.13
same,Retention Time 4.7,[14],1.11
same,Retention Time 5.6,[14],89.66
same,Retention Time 2.2,[15],5.9
same,Retention Time 2.6,[15],0.94
same,Retention Time 4.2,[15],0.22
same,Retention Time 4.7,[15],0.78
same,Retention Time 5.6,[15],92.85
same,Decrease in purity of CV-8972 between time points,[16],3.8
same,Retention Time 2.2,[16],8.12
same,Retention Time 2.6,[16],1.45
same,Retention Time 4.2,[16],0.21
same,Retention Time 4.7,[16],1.17
same,Retention Time 5.6,[16],89.05
same,Decrease in purity of CV-8972 between time points,[17],2.25
same,Retention Time 2.2,[17],10.14
same,Retention Time 2.6,[17],1.48
same,Retention Time 4.2,[17],0.13
same,Retention Time 4.7,[17],1.46
same,Retention Time 5.6,[17],86.8
same,Decrease in purity of CV-8972 between time points,[18],2.01
same,Retention Time 2.2,[18],11.63
same,Retention Time 2.6,[18],1.78
same,Retention Time 4.2,[18],0.13
same,Retention Time 4.7,[18],1.67
same,Retention Time 5.6,[18],84.79
same,Retention Time 2.2,[19],1.33
same,Retention Time 4.2,[19],1.19
same,Retention Time 5.6,[19],97.48
same,Decrease in purity of CV-8972 between time points,[20],2.38
same,Retention Time 2.2,[20],3.73
same,Retention Time 4.2,[20],1.17
same,Retention Time 5.6,[20],95.1
same,Decrease in purity of CV-8972 between time points,[21],2.65
same,Retention Time 2.2,[21],5.25
same,Retention Time 2.6,[21],0.67
same,Retention Time 4.2,[21],0.84
same,Retention Time 4.7,[21],0.79
same,Retention Time 5.6,[21],92.45
same,Decrease in purity of CV-8972 between time points,[22],1.8
same,Retention Time 2.2,[22],6.63
same,Retention Time 2.6,[22],0.9
same,Retention Time 4.2,[22],0.83
same,Retention Time 4.7,[22],0.99
same,Retention Time 5.6,[22],90.65
same,Decrease in purity of CV-8972 between time points,"289-MBA-15-A 2 mg/mL pH 6 (Form B), 22 hrs, pH 6.7",1.5
